In PubChem BioAssay AID652226 (The Scripps Research Institute Molecular Screening Center, 2013) one finds IC50 data, which are given here for three compounds.

Activity calls are given as the source filed them.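 How the source made its calls: active means compounds blocking PP5 with IC50 under 10 µM; inactive means the rest.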

This assay deals with Serine/threonine-protein phosphatase 5 (Homo sapiens) (UniProt P53041). The experiment in a line: human PP5c inhibition, concentration series – biochemical, fluorescence, OMFP substrate, set 1, selectivity assay for PP1 inhibitor project, late-stage follow-up (AID 652226). The conditions noted are these: purified PP5c, OMFP dephosphorylation.
Sequence of Serine/threonine-protein phosphatase 5 (Homo sapiens) (P53041 whole entry, looked up): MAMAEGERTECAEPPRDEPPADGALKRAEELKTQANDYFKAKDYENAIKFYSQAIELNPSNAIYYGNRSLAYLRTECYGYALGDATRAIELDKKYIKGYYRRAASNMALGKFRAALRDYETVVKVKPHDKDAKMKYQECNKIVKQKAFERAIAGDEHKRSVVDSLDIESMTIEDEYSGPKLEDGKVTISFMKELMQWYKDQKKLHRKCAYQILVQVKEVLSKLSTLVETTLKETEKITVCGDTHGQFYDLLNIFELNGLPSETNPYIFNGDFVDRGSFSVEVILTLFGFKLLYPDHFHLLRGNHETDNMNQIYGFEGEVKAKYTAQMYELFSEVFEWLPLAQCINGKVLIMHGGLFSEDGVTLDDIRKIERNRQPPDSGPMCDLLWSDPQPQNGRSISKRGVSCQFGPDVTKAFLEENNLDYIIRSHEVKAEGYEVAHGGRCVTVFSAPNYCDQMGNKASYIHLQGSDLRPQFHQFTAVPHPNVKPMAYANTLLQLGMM
`Oc1c(C(c2ccccn2)N2CCOCC2)cc(Cl)c2cccnc12` (stereo not drawn): the IC50 entry was “inactive”.
Then `CN1CCN(C(c2ccccn2)c2ccc3cccnc3c2O)CC1` (stereo not drawn), with “inactive”.
The value for `Oc1c(Cc2ccccn2)ccc2cccnc12` was “inactive”.
